We go through 19 compounds from US10081646B2, “Heterobicyclic sphingosine 1-phosphate analogs” (BIOGEN MA INC., priority 2008, dated 2018).

T1 sequence (Q99500 whole entry): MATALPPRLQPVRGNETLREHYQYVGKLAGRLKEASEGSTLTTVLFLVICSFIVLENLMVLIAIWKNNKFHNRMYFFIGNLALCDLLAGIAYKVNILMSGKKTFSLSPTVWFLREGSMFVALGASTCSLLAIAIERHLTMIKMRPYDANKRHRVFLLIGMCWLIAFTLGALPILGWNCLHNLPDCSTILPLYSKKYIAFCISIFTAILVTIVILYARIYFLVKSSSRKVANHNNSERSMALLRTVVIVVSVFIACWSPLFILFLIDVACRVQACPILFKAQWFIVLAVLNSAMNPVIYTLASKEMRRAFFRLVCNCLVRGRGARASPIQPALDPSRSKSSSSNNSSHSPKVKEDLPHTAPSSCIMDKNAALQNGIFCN

One test addresses T1, human S1P3 receptor (Homo sapiens, UniProt Q99500).
T1 construct: host or cells: recombinant CHEM cells
Kind of test: Calcium mobilization assay, recombinant CHEM cells expressing human S1P3. The conditions noted are these: FLIPR. In kind it is cell-based. On the procedure:
Compounds that were not specific for the S1P1 receptor, can have activity for other S1P receptor subtypes, e.g., S1P2, S1P3, S1P4, or S1P5, and can cause undesirable side effects. Accordingly, compounds were tested to identify those that were specific for S1P1 activity and had little or no activity, or are antagonists of, S1P3 activity. Accordingly, the test compounds were tested in a calcium mobilization assay to determine agonist activity at either the human S1P1 or human S1P3 receptor, and antagonist activity only at the human S1P3 receptor. The procedure was essentially as described (with modifications described below) in Davis et al. (2005) Journal of Biological Chemistry, vol. 280, pp. 9833-9841, which is incorporated by reference in its entirety. Calcium mobilization assays were performed in recombinant CHEM cells expressing human S1P1 or S1P3 purchased from Millipore (Billerica, Mass.). To detect free intracellular calcium, S1P1 or S1P3 cells were loaded with FLIPR Calcium 4 dye from Molecular Devices (Sunnyvale, Calif.). Cells were imagined for calcium mobilization using a FLIPR^TETRA equipped with a 96-well dispense head.
Background: A change in cytosolic calcium serves as a functional read-out for many receptors and channels.
On to `CCCCCCCCCCCCC/C=C/[C@@H](O)[C@@H](N)COP(=O)(O)O` [Example S1P, Sphingosine 1-phosphate], for which the S1P3 agonist activity result is on record as “full S1P3 agonist”.

The subject of the next test is circulating lymphocytes. Kind of test: Lymphopenia assay: measurement of circulating lymphocytes after oral gavage. In kind it is in vivo, Mice (C57bl/6 male). The settings on record: Mus musculus, Lymphocyte, po, mice, oral gavage 0.5 and 5 mg/kg in 30% HPCD, blood 5 and 24 hours after administration; read-out: Lymphopenia (ED50 mg/kg). The procedure: Measurement of circulating lymphocytes: Compounds were dissolved in 30% HPCD. Mice (C57bl/6 male, 6-10 week-old) were administered 0.5 and 5 mg/kg of a compound via oral gavage. 30% HPCD was included as a negative control.
Blood was collected from the retro-orbital sinus 5 and 24 hours after drug administration under short isoflurane anesthesia. Whole blood samples were subjected to hematology analysis. Peripheral lymphocyte counts were determined using an automated analyzer (HEMAVET™ 3700). Three mice were used to assess the lymphocyte depletion activity of each compound screened.
For `CC(N)(CO)c1ccc2nc(O[C@H]3CC[C@H](C(C)(C)C)CC3)ccc2c1` (relative stereo) [Example 78, 2-amino-2-(2-(trans-4-tert-butylcyclohexyloxy)quinolin-6-yl)propan-1-ol], the ED50 is above 5 mg/kg.

Take `CC(C)(C)[C@H]1CC[C@H](Oc2ccc3cc([C@](C)(N)CO)ccc3n2)CC1` (single isomer, unassigned) [Example 79A]: the ED50 is above 5 mg/kg.

Regarding `CC(C)(C)[C@H]1CC[C@H](Oc2ccc3cc([C@@](C)(N)CO)ccc3n2)CC1` (single isomer, unassigned) [Example 79], the ED50 was above 5 mg/kg.

As for `CCCCCCCOc1ccc2nc(C(C)(N)CO)ccc2c1` (stereo not shown) [Example 38, 2-amino-2-(6-(heptyloxy)quinolin-2-yl)propan-1-ol], the ED50 was 0.5 to 5 mg/kg.

For `CCCCCCCOc1ccc2nc([C@@](C)(N)CO)ncc2c1` [Example 50, (R)-2-Amino-2-(6-heptyloxyquinazolin-2-yl)propan-1-ol], the ED50 lay within 0.5 to 5 mg/kg.

As to `CC(C)(C)[C@H]1CC[C@H](Oc2ccc3nc([C@@](C)(N)CO)ncc3c2C(F)(F)F)CC1` [Example 61, (R)-2-Amino-2-(6-(trans-4-tert-butylcyclohexyloxy)-5-(trifluoromethyl)quinazolin-2-yl)propan-1-ol], the ED50 is 0.5 to 5 mg/kg.

In the case of `CC(C)(C)[C@H]1CC[C@H](Oc2ccc3c(c2C(F)(F)F)CC[C@H]([C@@](C)(N)CO)C3)CC1` [Example 71, (R)-2-amino-2-((S)-6-(trans-4-tert-butylcyclohexyloxy)-5-(trifluoromethyl)-1,2,3,4-tetrahydronaphthalen-2-yl)propan-1-ol], the ED50 is below 0.5 mg/kg.

As for `CC(C)(C)[C@H]1CC[C@H](Oc2cc3c(cc2C(F)(F)F)C[C@@H]([C@@](C)(N)CO)CC3)CC1` [Example 71A, (R)-2-amino-2-((S)-6-(trans-4-tert-butylcyclohexyloxy)-7-(trifluoromethyl)-1,2,3,4-tetrahydronaphthalen-2-yl)propan-1-ol], the ED50 was above 5 mg/kg.

With `CCCCCCCOc1ccc2cc(C(C)(N)CO)cnc2c1` (stereo not shown) [Example 91, 2-amino-2-(7-(heptyloxy)quinolin-3-yl)propan-1-ol], the ED50 was in the range of 0.5 to 5 mg/kg.

Take `CCCCCCCCc1ccc2nc(C(C)(N)CO)sc2c1` (stereo not shown) [Example 99, 2-amino-2-(6-octylbenzo[d]thiazol-2-yl)propan-1-ol]: the ED50 is above 5 mg/kg.

For the compound `CCCCCCCOc1ccc2cc(C(C)(N)CO)ccc2n1` (stereo not shown) [Example 103, 2-amino-2-(2-(heptyloxy)quinolin-6-yl)propan-1-ol], the ED50 fell in the range of 0.5 to 5 mg/kg.

Regarding `NC(CO)(CO)C1CCc2cc(Sc3cccc(OCc4ccccc4)c3)ccc2C1` (stereo not shown) [Example 113, 2-Amino-2-(6-(3-(benzyloxy)phenylthio)-1,2,3,4-tetrahydronaphthalen-2-yl)propane-1,3-diol], the ED50 is below 0.5 mg/kg.

The same test, now with this note: Mus musculus, Lymphocyte, po, read-out: Lymphopenia (ED50 mg/kg).
In the case of `CC(N)(CO)c1ccc2c(C(F)(F)F)c(O[C@H]3CC[C@H](C(C)(C)C)CC3)ccc2n1` (relative stereo) [Example 21, 2-Amino-2-[6-(trans-4-tert-butyl-cyclohexyloxy)-5-trifluoromethyl-quinolin-2-yl]-propan-1-ol], the ED50 is below 0.5 mg/kg.

Still in this test, the particulars now being: mice, oral gavage 0.5 and 5 mg/kg in 30% HPCD, blood 5 and 24 hours after administration.
Consider `CC(N)(CO)c1ccc2cc(O[C@H]3CC[C@H](C(C)(C)C)CC3)ccc2n1` (relative stereo) [Example 18, 2-Amino-2-[6-(trans-4-tert-butyl-cyclohexyloxy)-quinolin-2-yl]-propan-1-ol], for which the “Lymphopenia (ED50 mg/kg)” value fell in the range of 0.5 to 5 mg/kg.

As for `CC(N)(CO)c1ccc2cc(O[C@H]3CC[C@H](C(C)(C)C)CC3)ccc2n1` (relative stereo) [Example 23, 2-Amino-2-[6-(trans-4-tert-butyl-cyclohexyloxy)-quinolin-2-yl]-propan-1-ol], the “Lymphopenia (ED50 mg/kg)” value is listed as below 0.5 mg/kg.

As to `CC(N)(CO)c1ccc2cc(O[C@H]3CC[C@H](C(C)(C)C)CC3)ccc2n1` (relative stereo) [Example 24, 2-Amino-2-[6-(trans-4-tert-butyl-cyclohexyloxy)-quinolin-2-yl]-propan-1-ol], the “Lymphopenia (ED50 mg/kg)” value is listed as above 5 mg/kg.

In the case of `CC(N)(CO)c1ccc2c(C(F)(F)F)c(O[C@H]3CC[C@H](C(C)(C)C)CC3)ccc2n1` (relative stereo) [Example 26, 2-Amino-2-[6-(trans-4-tert-butyl-cyclohexyloxy)-5-trifluoromethyl-quinolin-2-yl]-propan-1-ol], the “Lymphopenia (ED50 mg/kg)” value is listed as below 0.5 mg/kg.

Turning to `CC(N)(CO)c1ccc2c(C(F)(F)F)c(O[C@H]3CC[C@H](C(C)(C)C)CC3)ccc2n1` (relative stereo) [Example 27, 2-Amino-2-[6-(trans-4-tert-butyl-cyclohexyloxy)-5-trifluoromethyl-quinolin-2-yl]-propan-1-ol], the “Lymphopenia (ED50 mg/kg)” value is reported as above 5 mg/kg.
